Data: ChEMBL document CHEMBL1201862, “PubChem BioAssay data set” (2004)
The source made the active and inactive calls.

Columns and labels:
[1] = target: T1, Long-chain-fatty-acid--AMP ligase FadD28 (Mycobacterium tuberculosis, UniProt P9WQ59); experiment: Fluorescence polarization aasay to screen for inhibitors that compete for the binding of FadD28 to a bisubstrate Measured in Biochemical System Using Plate Reader - 2147-01_Inhibitor_Dose_CherryPick_Activity.; type: functional, Mycobacterium tuberculosis H37Rv
T1 sequence (P9WQ59 whole entry): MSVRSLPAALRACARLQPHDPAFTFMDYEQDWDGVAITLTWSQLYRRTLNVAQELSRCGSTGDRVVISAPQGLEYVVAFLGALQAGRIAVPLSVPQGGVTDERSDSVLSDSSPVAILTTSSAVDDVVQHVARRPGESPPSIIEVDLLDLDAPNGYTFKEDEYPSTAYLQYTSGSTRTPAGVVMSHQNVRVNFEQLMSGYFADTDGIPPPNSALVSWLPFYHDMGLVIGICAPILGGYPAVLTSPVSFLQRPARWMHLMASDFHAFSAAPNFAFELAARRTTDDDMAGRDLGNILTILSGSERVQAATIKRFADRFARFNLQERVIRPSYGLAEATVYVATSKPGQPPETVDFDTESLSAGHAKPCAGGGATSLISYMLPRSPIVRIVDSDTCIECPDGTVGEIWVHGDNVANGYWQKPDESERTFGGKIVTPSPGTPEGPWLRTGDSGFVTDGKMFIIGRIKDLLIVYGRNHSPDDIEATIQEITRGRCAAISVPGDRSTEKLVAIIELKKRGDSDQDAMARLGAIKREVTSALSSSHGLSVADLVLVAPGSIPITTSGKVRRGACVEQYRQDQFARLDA

Fatty acid synthase [2] = target: T2, Fatty acid synthase (Homo sapiens, UniProt P49327); experiment: inhibition of human FAS-TE enzyme activity – biochemical, endpoint fluorescence intensity, uHTS hits, dose response (AID 624327); type: functional;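 note: fluorescence from hydrolysis of an O-methyl fluorescein acyl ester substrate by the enzyme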
Fatty acid synthase [3] = target: T2, Fatty acid synthase; experiment: inhibition of human FAS-TE enzyme activity – biochemical, kinetic fluorescence intensity, dose response (AID 624326); type: functional;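 note: rate of fluorescence rise from hydrolysis of a fluorogenic O-methyl fluorescein ester substrate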
[4] = target: T3, Adenosylmethionine-8-amino-7-oxononanoate aminotransferase (Mycobacterium tuberculosis, UniProt P9WQ81); experiment: Mycobacterium tuberculosis BioA enzyme inhibitor Measured in Biochemical System Using Plate Reader - 2163-02_Inhibitor_Dose_CherryPick_Activity.; type: functional, Mycobacterium tuberculosis UT205
T3 sequence (P9WQ81 whole entry): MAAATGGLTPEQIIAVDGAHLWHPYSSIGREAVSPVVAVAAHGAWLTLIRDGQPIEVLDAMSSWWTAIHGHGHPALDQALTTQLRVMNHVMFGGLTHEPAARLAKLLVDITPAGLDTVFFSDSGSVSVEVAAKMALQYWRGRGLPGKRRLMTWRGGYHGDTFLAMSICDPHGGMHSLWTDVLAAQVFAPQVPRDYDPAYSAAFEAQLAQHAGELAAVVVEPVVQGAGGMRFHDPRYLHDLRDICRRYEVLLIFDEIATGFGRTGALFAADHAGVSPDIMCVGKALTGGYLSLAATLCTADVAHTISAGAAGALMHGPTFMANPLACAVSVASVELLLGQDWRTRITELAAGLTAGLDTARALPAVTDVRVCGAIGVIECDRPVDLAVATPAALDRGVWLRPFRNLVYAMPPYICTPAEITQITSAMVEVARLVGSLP

Albumin = Albumin (Bos taurus, UniProt P02769); experiment: Counterscreen for inhibitors of T-cell receptor (TCR)-CD3 interaction: Fluorescence-based biochemical high throughput dose response assay to identify inhibitors of T-cell receptor (TCR)-CD3 interaction using a TAMRA-labeled BSA probe.; type: functional
Chain of Albumin (P02769 whole entry): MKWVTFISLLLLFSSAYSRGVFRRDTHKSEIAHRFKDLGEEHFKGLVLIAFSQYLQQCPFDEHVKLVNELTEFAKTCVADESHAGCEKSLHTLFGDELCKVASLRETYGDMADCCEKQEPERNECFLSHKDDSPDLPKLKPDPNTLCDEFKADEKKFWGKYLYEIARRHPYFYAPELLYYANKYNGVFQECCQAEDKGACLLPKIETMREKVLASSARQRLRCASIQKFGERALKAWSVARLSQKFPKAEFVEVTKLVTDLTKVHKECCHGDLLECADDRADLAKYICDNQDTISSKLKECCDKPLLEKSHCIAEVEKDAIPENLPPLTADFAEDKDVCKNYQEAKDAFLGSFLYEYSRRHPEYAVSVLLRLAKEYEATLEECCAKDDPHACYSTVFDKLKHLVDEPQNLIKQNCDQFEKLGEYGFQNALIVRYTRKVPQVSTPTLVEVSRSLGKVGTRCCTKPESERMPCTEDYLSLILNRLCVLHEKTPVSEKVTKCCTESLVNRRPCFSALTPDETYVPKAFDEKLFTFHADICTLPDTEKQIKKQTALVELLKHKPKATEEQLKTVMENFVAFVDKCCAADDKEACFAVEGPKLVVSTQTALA

T2 sequence (P49327 whole entry): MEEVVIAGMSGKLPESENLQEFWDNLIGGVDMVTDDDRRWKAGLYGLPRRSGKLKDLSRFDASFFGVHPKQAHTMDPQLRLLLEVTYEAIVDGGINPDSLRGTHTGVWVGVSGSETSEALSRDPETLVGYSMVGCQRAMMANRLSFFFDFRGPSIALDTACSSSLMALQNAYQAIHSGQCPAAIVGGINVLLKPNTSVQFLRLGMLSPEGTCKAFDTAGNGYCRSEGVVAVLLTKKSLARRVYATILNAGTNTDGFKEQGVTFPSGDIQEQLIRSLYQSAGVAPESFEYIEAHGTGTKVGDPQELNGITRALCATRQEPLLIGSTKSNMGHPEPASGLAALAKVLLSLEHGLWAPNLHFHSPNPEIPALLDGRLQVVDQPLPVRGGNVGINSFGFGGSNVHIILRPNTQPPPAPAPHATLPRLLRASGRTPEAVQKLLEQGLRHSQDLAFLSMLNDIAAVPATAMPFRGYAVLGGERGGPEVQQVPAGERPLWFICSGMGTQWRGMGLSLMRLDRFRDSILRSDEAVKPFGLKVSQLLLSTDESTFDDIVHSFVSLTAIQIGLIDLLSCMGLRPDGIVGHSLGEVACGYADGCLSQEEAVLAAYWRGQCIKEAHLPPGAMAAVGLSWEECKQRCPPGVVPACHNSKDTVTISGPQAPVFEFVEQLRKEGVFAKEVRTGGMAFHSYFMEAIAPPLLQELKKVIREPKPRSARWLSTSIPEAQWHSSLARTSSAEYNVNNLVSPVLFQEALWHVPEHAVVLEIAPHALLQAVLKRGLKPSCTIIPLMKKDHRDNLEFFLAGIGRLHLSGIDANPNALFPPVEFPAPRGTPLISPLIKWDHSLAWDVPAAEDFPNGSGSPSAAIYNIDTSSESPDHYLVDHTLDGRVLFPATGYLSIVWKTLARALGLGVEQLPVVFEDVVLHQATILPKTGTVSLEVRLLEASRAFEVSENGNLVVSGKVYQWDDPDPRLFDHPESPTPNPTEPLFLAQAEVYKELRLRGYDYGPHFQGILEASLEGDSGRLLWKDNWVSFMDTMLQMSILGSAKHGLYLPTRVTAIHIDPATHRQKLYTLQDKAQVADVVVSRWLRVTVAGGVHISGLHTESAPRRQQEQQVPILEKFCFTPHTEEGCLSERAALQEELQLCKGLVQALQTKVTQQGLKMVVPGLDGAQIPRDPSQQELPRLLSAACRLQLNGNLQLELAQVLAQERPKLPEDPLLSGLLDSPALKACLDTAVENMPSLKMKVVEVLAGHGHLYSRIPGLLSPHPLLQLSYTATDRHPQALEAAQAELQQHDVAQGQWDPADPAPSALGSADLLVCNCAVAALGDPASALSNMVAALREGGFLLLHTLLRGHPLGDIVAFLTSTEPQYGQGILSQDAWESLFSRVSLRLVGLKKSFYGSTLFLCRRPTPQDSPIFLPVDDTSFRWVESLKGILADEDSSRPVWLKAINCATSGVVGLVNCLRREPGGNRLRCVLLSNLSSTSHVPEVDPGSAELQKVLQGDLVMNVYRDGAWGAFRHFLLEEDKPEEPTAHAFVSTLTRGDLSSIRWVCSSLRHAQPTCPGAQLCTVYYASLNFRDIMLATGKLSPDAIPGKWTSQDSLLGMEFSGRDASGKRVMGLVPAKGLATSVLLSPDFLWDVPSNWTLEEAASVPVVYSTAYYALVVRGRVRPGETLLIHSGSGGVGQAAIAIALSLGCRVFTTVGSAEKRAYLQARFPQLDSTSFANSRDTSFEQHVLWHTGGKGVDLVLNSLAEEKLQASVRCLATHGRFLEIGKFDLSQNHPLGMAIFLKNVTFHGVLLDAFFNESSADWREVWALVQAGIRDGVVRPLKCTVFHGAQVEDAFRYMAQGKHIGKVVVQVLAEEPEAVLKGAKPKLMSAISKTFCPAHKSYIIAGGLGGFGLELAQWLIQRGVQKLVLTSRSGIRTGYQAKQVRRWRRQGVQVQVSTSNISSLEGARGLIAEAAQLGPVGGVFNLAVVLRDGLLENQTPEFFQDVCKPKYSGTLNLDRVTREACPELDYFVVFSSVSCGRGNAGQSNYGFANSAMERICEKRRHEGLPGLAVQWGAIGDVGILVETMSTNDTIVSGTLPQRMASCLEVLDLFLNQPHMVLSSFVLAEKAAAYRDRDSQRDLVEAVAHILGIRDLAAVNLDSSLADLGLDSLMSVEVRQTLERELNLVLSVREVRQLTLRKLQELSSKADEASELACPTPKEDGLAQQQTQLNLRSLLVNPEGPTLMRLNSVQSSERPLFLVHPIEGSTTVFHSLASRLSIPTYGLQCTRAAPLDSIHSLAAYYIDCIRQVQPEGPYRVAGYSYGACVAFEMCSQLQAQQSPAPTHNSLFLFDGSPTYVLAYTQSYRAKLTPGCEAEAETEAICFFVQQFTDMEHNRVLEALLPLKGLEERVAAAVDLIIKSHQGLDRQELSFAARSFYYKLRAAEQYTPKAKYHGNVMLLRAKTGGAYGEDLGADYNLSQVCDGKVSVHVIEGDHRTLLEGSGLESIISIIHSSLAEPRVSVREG

| Compound | AC50 [1] | AC50 [4] | other results |
| --- | --- | --- | --- |
| CSc1ncc(Cl)c(C(=O)Nc2nnc(SC/C=C/c3ccccc3)s2)n1 | > 100 µM (inactive) |  |  |
| COc1ccc(C(=O)NC(CC(=O)O)c2cc([N+](=O)[O-])ccc2Cl)c(SC)c1 (stereo unspecified) |  |  | IC50 (Fatty acid synthase [2]): 7.33 µM (active); IC50 (Fatty acid synthase [3]): 8.79 µM (active) |
| C=CCNC(=O)/C(=C\c1ccc(OC)cc1)NC(=O)c1ccc([N+](=O)[O-])cc1 |  |  | IC50 (Fatty acid synthase [2]): 2.93 µM (active); IC50 (Fatty acid synthase [3]): 2.21 µM (active) |
| Nn1c(SCCOc2ccccc2)nnc1-c1cccnc1 |  | 1.33 µM (active) |  |
| O=C(O)CCc1ccc(-c2ccc(Cl)cc2)n1Cc1ccco1 | 21.8 µM (active) |  |  |
| Cc1cc(NC(=O)CN(C)S(=O)(=O)c2c[nH]cn2)ccc1Br |  | 19 µM (active) |  |
| Cc1cccc(C(=O)NNC(=O)c2ccc(NS(=O)(=O)c3cccs3)cc2)c1C | 43.8 µM (active) |  |  |
| CCC(=O)N1CC[C@@H]2[C@@H](CO)N(C)c3ccc(-c4cccc(F)c4)cc3[C@@H]21 |  | 0.184 µM (active) |  |
| C=CCNC(=S)NNC(=O)c1cccn(Cc2cccc(Cl)c2)c1=O |  |  | IC50 (Albumin): > 94.1 µM (inactive) |
